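Cultured in 96-well plates, cells were exposed to test compound for 48 hours across five concentrations. GI50 is the concentration that inhibits growth by half.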 Active and inactive are the calls of the source. Rule as the data show it: active = GI50 up to about 1.1 µM and inactive = higher.
Assays:
Experiment in all cases: NCI anticancer screen, dose series, 48 h
[1] = tested on: SK-MEL-5
[2] = tested on: MDA-MB-435
[3] = tested on: OVCAR-5
[4] = tested on: CCRF-CEM
[5] = tested on: SR
[6] = tested on: IGROV-1
[7] = tested on: SN12C
[8] = tested on: HOP-92
[9] = tested on: SK-OV-3
[10] = tested on: SW-620
[11] = tested on: MDA-N
[12] = tested on: SF-295
[13] = tested on: SK-MEL-28
[14] = tested on: MOLT-4
[15] = tested on: HOP-62
[16] = tested on: DU-145
[17] = tested on: KM12
[18] = tested on: RXF 393
[19] = tested on: NCI/ADR-RES
[20] = tested on: A549
[21] = tested on: SF-539
[22] = tested on: OVCAR-3
[23] = tested on: T47D
[24] = tested on: COLO 205
[25] = tested on: UACC-62
[26] = tested on: U-251
[27] = tested on: K562
[28] = tested on: 786-0
[29] = tested on: SNB-19
[30] = tested on: MDA-MB-231
[31] = tested on: BT-549
[32] = tested on: HL-60
[33] = tested on: M14
[34] = tested on: SF-268
[35] = tested on: HT-29
[36] = tested on: HCT-116
[37] = tested on: HCC 2998
[38] = tested on: NCI-H226
[39] = tested on: PC-3
[40] = tested on: MCF7
[41] = tested on: ACHN
[42] = tested on: EKVX
[43] = tested on: OVCAR-8
[44] = tested on: TK-10
[45] = tested on: SNB-75
[46] = tested on: UO-31
[47] = tested on: SK-MEL-2
[48] = tested on: A498
[49] = tested on: LOX IMVI
[50] = tested on: UACC-257
[51] = tested on: NCI-H460
[52] = tested on: Hs-578T
[53] = tested on: RPMI-8226
[54] = tested on: NCI-H23
[55] = tested on: NCI-H522
[56] = tested on: CAKI-1
[57] = tested on: HCT-15
[58] = tested on: OVCAR-4
[59] = tested on: Malme-3M

Measured: GI50

CC(=O)O[C@H]1C(=O)[C@@]2(C)[C@H]([C@H](OC(=O)c3ccccc3)[C@]3(O)C[C@H](OC(=O)[C@H](O)[C@@H](NC(=O)c4ccccc4)c4cccc(N(C)C)c4)C(C)=C1C3(C)C)[C@]1(OC(C)=O)CO[C@@H]1C[C@@H]2O
1.79 µM: [57]
inactive: [19] > 28.2 µM | [42] > 32.1 µM | [44] 1.41 µM | [46] 1.96 µM | [56] > 48.3 µM
active: [1] 0.0417 µM | [2] 0.00893 µM | [3] 0.157 µM | [4] 0.0215 µM | [5] 0.0322 µM | [6] 0.0537 µM | [7] 0.041 µM | [8] 0.555 µM | [9] 0.105 µM | [10] 0.0409 µM | [11] 0.00766 µM | [12] 0.142 µM | [13] 0.575 µM | [14] 0.013 µM | [15] 0.256 µM | [16] 0.302 µM | [17] 0.0198 µM | [18] 0.221 µM | [20] 0.314 µM | [21] 0.0668 µM | [22] 0.0308 µM | [23] 0.401 µM | [24] 0.0432 µM | [25] 0.254 µM | [26] 0.0608 µM | [27] 0.0324 µM | [28] 0.389 µM | [29] 0.148 µM | [30] 0.542 µM | [31] 0.165 µM | [32] 0.0122 µM | [33] 0.098 µM | [34] 0.337 µM | [35] 0.0219 µM | [36] 0.0174 µM | [37] 0.0315 µM | [38] 0.665 µM | [39] 0.209 µM | [40] 0.0164 µM | [41] 0.7 µM | [43] 0.155 µM | [45] 1.01 µM | [47] 0.0301 µM | [48] 0.579 µM | [49] 0.036 µM | [50] 0.714 µM | [51] 0.0419 µM | [52] 0.0276 µM | [53] 0.00968 µM | [54] 0.0755 µM | [55] 0.0533 µM

Sc1ccc2ccccc2c1CNCc1ccccc1
16.4 µM: [57]
inactive: [1] 9.46 µM | [2] 12.3 µM | [3] 13.1 µM | [4] 3.72 µM | [5] 3.44 µM | [6] 2.65 µM | [7] 6.24 µM | [58] 10.9 µM | [9] 11.8 µM | [10] 9.12 µM | [11] 13.2 µM | [12] 19.4 µM | [13] 21.5 µM | [59] 21.8 µM | [14] 2.25 µM | [15] 15.4 µM | [16] 18.4 µM | [17] 13.9 µM | [18] 11.8 µM | [19] 25.4 µM | [20] 25.3 µM | [21] 10 µM | [22] 13.6 µM | [23] 19.3 µM | [24] 13.7 µM | [25] 14.3 µM | [26] 12.8 µM | [27] 13.3 µM | [28] 9.75 µM | [29] 24.3 µM | [30] 18.5 µM | [31] 15.8 µM | [32] 5.77 µM | [33] 10 µM | [34] 8.47 µM | [35] 27.9 µM | [36] 13.8 µM | [37] > 100 µM | [38] 3.08 µM | [39] 18.8 µM | [40] 13.7 µM | [41] 19 µM | [42] 22.9 µM | [43] 20.5 µM | [44] 30.8 µM | [45] 15.7 µM | [46] 11.7 µM | [47] 19.7 µM | [48] 16.3 µM | [49] 5.78 µM | [50] 26.6 µM | [51] 24.1 µM | [52] 22.7 µM | [53] 12.5 µM | [54] 14.5 µM | [55] 4.93 µM | [56] 15.7 µM

Cn1c2ccccc2c2c3c(=O)[nH][nH]c(=O)c3c3c4ccccc4n(C)c3c21
99.1 µM: [57]
inactive: [1] > 100 µM | [2] > 100 µM | [3] > 100 µM | [6] > 100 µM | [7] > 100 µM | [58] > 64.3 µM | [8] > 100 µM | [9] > 100 µM | [10] > 100 µM | [11] > 100 µM | [12] > 100 µM | [13] > 100 µM | [59] > 100 µM | [14] > 100 µM | [15] > 96.6 µM | [16] > 100 µM | [17] 30.1 µM | [18] > 100 µM | [19] > 58.2 µM | [20] > 100 µM | [21] > 100 µM | [22] > 100 µM | [24] > 89.1 µM | [25] > 100 µM | [26] > 100 µM | [27] 58.5 µM | [28] > 100 µM | [29] > 100 µM | [30] > 100 µM | [31] > 100 µM | [33] > 84.5 µM | [34] > 100 µM | [35] > 100 µM | [36] 78.3 µM | [37] > 100 µM | [38] > 100 µM | [39] > 100 µM | [41] > 100 µM | [42] > 100 µM | [43] > 100 µM | [44] > 100 µM | [45] > 100 µM | [46] > 100 µM | [47] > 100 µM | [48] > 100 µM | [49] > 100 µM | [50] > 100 µM | [51] 16.9 µM | [52] > 100 µM | [53] 13.6 µM | [54] 12.5 µM | [56] > 100 µM
active: [4] 0.655 µM | [5] < 0.01 µM | [23] 0.284 µM | [40] 0.133 µM | [55] 1.09 µM

Cc1cn(CCCCOC(=O)NC(CCCNC(=N)N)C(=O)O)c(=O)[nH]c1=O (centres undefined)
> 100 µM: [57]
inactive: [2] > 100 µM | [3] > 100 µM | [4] > 100 µM | [5] > 100 µM | [6] > 100 µM | [7] > 100 µM | [58] > 100 µM | [8] > 100 µM | [9] > 100 µM | [10] > 100 µM | [11] > 100 µM | [12] > 100 µM | [13] > 100 µM | [14] > 100 µM | [15] > 100 µM | [16] > 100 µM | [17] > 100 µM | [18] > 100 µM | [19] > 100 µM | [20] > 100 µM | [21] > 100 µM | [22] > 100 µM | [23] > 100 µM | [24] > 100 µM | [25] > 100 µM | [26] > 100 µM | [27] > 100 µM | [28] > 100 µM | [29] > 100 µM | [30] > 100 µM | [31] > 100 µM | [32] > 100 µM | [33] > 100 µM | [34] > 100 µM | [35] > 100 µM | [36] > 100 µM | [37] > 100 µM | [38] > 100 µM | [39] > 100 µM | [40] > 100 µM | [41] > 100 µM | [42] > 100 µM | [43] > 100 µM | [44] > 100 µM | [45] > 100 µM | [46] > 100 µM | [47] > 100 µM | [48] > 100 µM | [49] > 100 µM | [50] > 100 µM | [51] > 100 µM | [52] > 100 µM | [53] > 100 µM | [54] > 100 µM | [56] > 100 µM
